The record followed here is patent US7723324B2 (priority 2003, dated 2010).

Assay [1] has as its target T1, peripheral benzodiazepine receptors (Rattus norvegicus, UniProt P16257).
T1 construct: from tissue; Rat heart membranes according to own knowledge of the cited Le Fur et al. method
Briefly: benzodiazepine receptor binding (test of LeFur et al.), peripheral. As for the experimental part: Compounds of the invention were assessed for their binding to the benzodiazepine receptor by the test of Speth et al. [Life Sci. 24, 351 (1979)] for central benzodiazepine receptors and LeFur et al. [Life Sci. 33, 449 (1983)] for peripheral receptors. The compounds were tested first at 1.00E-09, 1.0E-07 and 1.0E-05 M in single determination. […] The specific ligand binding to the receptor is defined as the difference between the total binding and the nonspecific binding determined in the presence of an excess of unlabelled ligand. In each experiment, the respective reference compound was tested concurrently with the test compounds in order to assess the assay suitability. It was tested at several concentrations (for IC50 value determination), and the data were compared with historical values. The assay was rendered valid if suitability criteria were met.
However, the invention is not limited to the compounds found in the Tables.

The nature of assay [2]: maze test, which tests anxiety. The format is in vivo. To be noted: 10 mg/kg. As for the experimental part:
The compounds of Example 1d (also found in Example 6d), Example 22d, and Example 35d, were also tested in vivo using the maze test, which tests anxiety [Montgomery, J. Comparative and Physiological Psychology 48, 254-60 (1955); Handley et al., Naunyn-Schmiedeberg's Archives of Pharmacology 327, 1-5 (1984); Lister, Psychopharm. 92, 180-85 (1987); Pellow et al., J. Neuroscience Methods 14, 149-67 (1985); Rodgers et al., Ethology and Psychopharmacology, S. J. Cooper and C. A. Hendrie (eds), John Wiley & Sons, Ltd., 9-43 (1994); and Trullas et al., Psychopharm. 111, 323-31 (1993)]. The results of the maze test for these compounds are found in FIGS. 1a, 1b, 2a, 2b, 3a, and 3b. FIGS. 1a, 2a, and 3a are graphs of the Number of Entries in Open Arms vs. mg/kg (dose of administered compound). FIGS. 1b, 2b, and 3b plot the Percent of Time Spent in Open Arms vs. mg/kg (dose of administered compound). […] The results of the maze test are accepted by persons of skill in the art as predictive of therapeutic utility.

T1 sequence (P16257 whole entry): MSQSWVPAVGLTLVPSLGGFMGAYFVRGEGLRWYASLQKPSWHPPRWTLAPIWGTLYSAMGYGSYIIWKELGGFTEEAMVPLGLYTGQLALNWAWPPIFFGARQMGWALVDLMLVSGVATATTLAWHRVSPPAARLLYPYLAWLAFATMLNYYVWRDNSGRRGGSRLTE

In the case of `Cc1ccc(-c2nc3ccc(C)cn3c2CC(=O)c2cccn2C)cc1`, the IC50 in assay [1] (Table 1a) is over 10000 nM.
`Cc1ccc(-c2nc3ccc(C)cn3c2CC(=O)c2c(C)nc3ccccn23)cc1`: the IC50 in assay [1] (Table 1a) stood at 1600 nM.
The same measure, in the same setting: the value for `Cc1ccc(-c2nc3ccc(C)cn3c2CC(=O)c2cc(C)n[nH]2)cc1` was over 10000 nM.
Same read-out and setting: the same measure for `Cc1ccc(-c2nc3ccc(C)cn3c2CC(=O)c2cc3ccccc3n2C)cc1`: 540 nM.
For `Cc1ccc(-c2nc3ccc(C)cn3c2CC(=O)c2cnn3c(C)cc(C)nc23)cc1`, the IC50 in assay [1] (Table 1a) was over 10000 nM.
`COc1ccc(-c2nc3ccc(C)cn3c2CC(=O)c2cccn2C)cc1`: in assay [1] (Table 1b), the IC50 was 1700 nM.
The compound `COc1ccc(-c2nc3ccc(C)cn3c2CC(=O)c2cnn3c(C)cc(C)nc23)cc1` registered an IC50 in assay [1] (Table 1b) of over 10000 nM.
Compound `Cc1ccc(-c2nc3ccc(C)cn3c2C2CCN(C)C2=O)cc1` (stereo not shown) gave an IC50 in assay [1] (Table 2) of over 10000 nM.
For `Cc1ccc(-c2nc3ccc(C)cn3c2CC(=O)c2cccs2)cc1` [Example 1d, 2-(6-Methyl-2-p-tolyl-imidazo[1,2-a]pyridin-3-yl)-1-thiophen-2-yl-ethanone], the “maze test activity (Number of Entries in Open Arms, Percent of Time Spent in Open Arms)” value in assay [2] is “statistically significant activity”.
Regarding `COc1ccsc1C(=O)Cc1c(-c2ccc(C)cc2)nc2ccc(C)cn12` [Example 22D, 1-(3-Methoxy-thiophen-2-yl)-2-(6-methyl-2-p-tolyl-imidazo[1,2-a]pyridin-3-yl)-ethanone], the “maze test activity (Number of Entries in Open Arms, Percent of Time Spent in Open Arms)” value in assay [2] was “statistically significant activity”.

As a reminder, the IC50 is the concentration at which inhibition is half-maximal. A high value points to weaker potency in that assay.
